Read-outs that look alike come from different tables or passages of the source.
Columns and labels:
[1] = molecular target: T1, androgen receptor (AR) splicing variant AR-v7 (Homo sapiens, UniProt P10275); test: Degradation activity on androgen receptor splicing variant AR-v7 in 22RV1 cells (ELISA); assay type: cell-based; conditions: AR-v7 degradation in 22RV1 cells, 48 h, class symbols
T1 construct: The degradation activity of compounds on AR-v7 in 22RV1 cells; host or cells: 22RV1 cells
T1 sequence (P10275 1-644 isoform P10275-3): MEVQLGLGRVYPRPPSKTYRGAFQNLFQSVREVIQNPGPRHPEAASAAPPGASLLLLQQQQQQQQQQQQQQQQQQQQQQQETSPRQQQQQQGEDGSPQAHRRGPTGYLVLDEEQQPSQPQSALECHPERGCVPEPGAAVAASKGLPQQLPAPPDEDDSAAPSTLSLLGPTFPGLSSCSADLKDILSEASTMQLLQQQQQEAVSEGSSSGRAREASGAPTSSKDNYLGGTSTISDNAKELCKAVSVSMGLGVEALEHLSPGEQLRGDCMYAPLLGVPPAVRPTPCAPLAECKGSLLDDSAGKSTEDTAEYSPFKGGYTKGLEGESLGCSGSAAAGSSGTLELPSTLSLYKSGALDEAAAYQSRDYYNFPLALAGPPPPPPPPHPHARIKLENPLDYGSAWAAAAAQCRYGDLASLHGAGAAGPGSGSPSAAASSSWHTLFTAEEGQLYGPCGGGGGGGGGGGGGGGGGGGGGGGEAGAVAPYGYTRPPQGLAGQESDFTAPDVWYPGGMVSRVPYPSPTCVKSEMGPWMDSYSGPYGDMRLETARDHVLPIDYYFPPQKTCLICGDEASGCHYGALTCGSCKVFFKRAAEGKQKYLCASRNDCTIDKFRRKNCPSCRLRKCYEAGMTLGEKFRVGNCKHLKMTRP

[2] = Homo sapiens, 22Rv1, 144 h, read-out: 22RV1 IC50 (nM), 22RV1 cells, 6 days culture, CCK-8, OD 450 nm
[3] = read-out: 22RV1 IC50, 22RV1 cells, 6 days culture, CCK-8, OD 450 nm

IC50 (22RV1 cells; [2]) | DC50 [1] | IC50 (22RV1 cells; [3]) | SMILES | IC50 (22RV1 cells; Homo sapiens, 22Rv1, 144 h, read-out: 22RV1 IC50 (nM))
10 nM | < 10 nM | – | CNc1nccc(COc2ccc(C(C)(C)c3ccc(O[C@H]4C[C@H](Nc5ccc6c(c5)C(=O)N(C5CCC(=O)NC5=O)C6=O)C4)cc3)cc2)n1 (some centres unmarked) [Example 395] | –
– | < 10 nM | 23 nM | CC(C)(c1ccc(OCc2ccnc(N3CCOCC3)n2)cc1)c1ccc(OC2CC(Nc3ccc4c(c3)C(=O)N(C3CCC(=O)NC3=O)C4=O)C2)cc1 (centres unmarked) [Example 396, 2-(2,6-dioxopyridin-3-yl)-5-(1s,3s)-3-(4-(2-(4-(2-morpholinylpyrimidin-4-yl)methoxy)phenyl)propan-2-yl)phenoxy)cyclobutyl)amino)isoindol-1,3-dione] | –
13 nM | < 10 nM | – | CC(C)(c1ccc(OCc2ccnc(N3CCC[C@@H](O)C3)n2)cc1)c1ccc(O[C@H]2C[C@@H](Nc3ccc4c(c3)C(=O)N(C3CCC(=O)NC3=O)C4=O)C2)cc1 (some centres unmarked) [Example 397] | –
– | < 10 nM | 9 nM | CC(C)(c1ccc(OCc2ccnc(N3CC[C@H](O)C3)n2)cc1)c1ccc(OC2CC(Nc3ccc4c(c3)C(=O)N(C3CCC(=O)NC3=O)C4=O)C2)cc1 (some centres unmarked) [Example 398] | –
16 nM | < 10 nM | – | CC(C)(c1ccc(OCc2ccnc(N3CCC[C@H](O)C3)n2)cc1)c1ccc(O[C@H]2C[C@@H](Nc3ccc4c(c3)C(=O)N(C3CCC(=O)NC3=O)C4=O)C2)cc1 (some centres unmarked) [Example 399] | –
10 nM | < 10 nM | – | CN(C)C1CN(c2nccc(COc3ccc(C(C)(C)c4ccc(O[C@H]5C[C@@H](Nc6ccc7c(c6)C(=O)N(C6CCC(=O)NC6=O)C7=O)C5)cc4)cc3)n2)C1 (some centres unmarked) [Example 400] | –
– | < 10 nM | 19 nM | CC(C)(c1ccc(OCc2ccnc(-n3ccnc3)n2)cc1)c1ccc(OC2CC(Nc3ccc4c(c3)C(=O)N(C3CCC(=O)NC3=O)C4=O)C2)cc1 (centres unmarked) [Example 405, 5-((1s,3s)-3-(4-(2-(2-(1H-imidazol-1-yl)pyrimidin-4-yl)methoxy)phenyl)propan-2-yl)phenoxy)cyclobutyl)amino)-2-(2,6-dioxopiperidin-3-yl)isoindol-1,3-dione] | –
6 nM | < 10 nM | – | CC(C)(c1ccc(OCc2ccnc(N3CC(N4CCC4)C3)n2)cc1)c1ccc(O[C@H]2C[C@@H](Nc3ccc4c(c3)C(=O)N(C3CCC(=O)NC3=O)C4=O)C2)cc1 (some centres unmarked) [Example 410] | –
11 nM | < 10 nM | – | CC(C)(c1ccc(OCc2cccc(N3CC4(COC4)C3)n2)cc1)c1ccc(O[C@H]2C[C@H](Nc3ccc4c(c3)C(=O)N(C3CCC(=O)NC3=O)C4=O)C2)cc1 (some centres unmarked) [Example 413] | –
6 nM | < 10 nM | – | CC(C)(c1ccc(OCc2ccnc(N3CC(N4CCC4)C3)n2)cc1)c1ccc(O[C@H]2C[C@H](Nc3ccc4c(c3)C(=O)N(C3CCC(=O)NC3=O)C4=O)C2)cc1 (some centres unmarked) [Example 414] | –
22 nM | < 10 nM | – | Cn1cc(-c2cccc(COc3ccc(C(C)(C)c4ccc(O[C@H]5C[C@H](Nc6ccc7c(c6)C(=O)N(C6CCC(=O)NC6=O)C7=O)C5)cc4)cc3)n2)cn1 (some centres unmarked) [Example 416] | –
8 nM | < 10 nM | – | CC(C)(c1ccc(OCc2cccc(-n3nccn3)n2)cc1)c1ccc(O[C@H]2C[C@H](Nc3ccc4c(c3)C(=O)N(C3CCC(=O)NC3=O)C4=O)C2)cc1 (some centres unmarked) [Example 419] | –
5 nM | < 10 nM | – | CC(C)(c1ccc(OCc2ccnc(N3CC(N4CC(F)C4)C3)n2)cc1)c1ccc(O[C@H]2C[C@H](Nc3ccc4c(c3)C(=O)N(C3CCC(=O)NC3=O)C4=O)C2)cc1 (some centres unmarked) [Example 420] | –
16 nM | < 10 nM | – | CN1CCN(c2ccc(Oc3ccc(C(C)(C)c4ccc(O[C@H]5C[C@H](Nc6ccc7c(c6)C(=O)N(C6CCC(=O)NC6=O)C7=O)C5)cc4)cc3)nn2)CC1 (some centres unmarked) [Example 425] | –
6 nM | < 10 nM | – | CCC(=O)c1ncc(Oc2ccc(C(C)(C)c3ccc(O[C@H]4C[C@H](Nc5ccc6c(c5)C(=O)N(C5CCC(=O)NC5=O)C6=O)C4)cc3)cc2)cn1 (some centres unmarked) [Example 427] | –
6 nM | < 10 nM | – | CCC(O)c1ncc(Oc2ccc(C(C)(C)c3ccc(O[C@H]4C[C@H](Nc5ccc6c(c5)C(=O)N(C5CCC(=O)NC5=O)C6=O)C4)cc3)cc2)cn1 (some centres unmarked) [Example 428] | –
9 nM | < 10 nM | – | Cc1nnc(Oc2ccc(C(C)(C)c3ccc(O[C@H]4C[C@H](Nc5ccc6c(c5)C(=O)N(C5CCC(=O)NC5=O)C6=O)C4)cc3)cc2)o1 (some centres unmarked) [Example 429, 2-(2,6-dioxopiperidin-3-yl)-5-((1r,3r)-3-(4-(2-(4-((5-methyl-1,3,4-oxadiazol-2-yl)oxy)phenyl)propan-2-yl)phenoxy)cyclobutyl)aminoisoindol-1,3-dione] | –
9 nM | < 10 nM | – | CCC(CC)(c1ccc(Oc2ccc(C(C)O)nn2)cc1)c1ccc(O[C@H]2C[C@@H](Nc3ccc4c(c3)C(=O)N(C3CCC(=O)NC3=O)C4=O)C2)cc1 (some centres unmarked) [Example 430] | –
– | < 10 nM | 4 nM | CCC(CC)(c1ccc(Oc2ccc(C(C)=O)nn2)cc1)c1ccc(OC2CC(Nc3ccc4c(c3)C(=O)N(C3CCC(=O)NC3=O)C4=O)C2)cc1 (centres unmarked) [Example 431, 5-((1s,3s)-3-(4-(3-(4-((6-acetylpyridazine-3-yl)oxy)phenyl)pentan-3-yl)phenoxy)cyclobutyl)amino)-2-(2,6-dioxopyridin-3-yl)isoindol-1,3-dione] | –
7 nM | < 10 nM | – | CNC(=O)c1ncc(Oc2ccc(C(C)(C)c3ccc(O[C@H]4C[C@H](Nc5ccc6c(c5)C(=O)N(C5CCC(=O)NC5=O)C6=O)C4)cc3)cc2)cn1 (some centres unmarked) [Example 432] | –
6 nM | < 10 nM | – | CC(C)(c1ccc(Oc2cnc(-n3nccn3)nc2)cc1)c1ccc(O[C@H]2C[C@H](Nc3ccc4c(c3)C(=O)N(C3CCC(=O)NC3=O)C4=O)C2)cc1 (some centres unmarked) [Example 436, 5-(((1r,3r)-3-(4-(2-(4-((2-(2H-1,2,3-triazol-2-yl)pyrimidin-5-yl)oxy)phenyl)propan-2-yl)phenoxy)cyclobutyl)amino)-2-(2,6-dioxopiperidin-3-yl)isoindolin-1,3-dione] | –
62 nM | 11 to 100 nM | – | CC(C)(c1ccc(OCCCNc2ccc3c(c2)C(=O)N(C2CCC(=O)NC2=O)C3=O)cc1)c1ccc(OCc2ccnc(NC3CC3)n2)cc1 (centres unmarked) [Example 444, 5-((3-(4-(2-(4-((2-(cyclopropylamino)pyrimidin-4-yl)methoxy)phenyl)propan-2-yl)phenoxy)propyl)amino)-2-(2,6-dioxopiperidin-3-yl)isoindolin-1,3-dione] | –
5 nM | < 10 nM | – | CC(C)(c1ccc(OCc2ccnc(-n3ccnn3)n2)cc1)c1ccc(O[C@H]2C[C@@H](Nc3ccc4c(c3)C(=O)N(C3CCC(=O)NC3=O)C4=O)C2)cc1 (some centres unmarked) [Example 445, 5-(((1s,3s)-3-(4-(2-(4-((2-(1H-1,2,3-triazol-1-yl)pyrimidin-4-yl)methoxy)phenyl)propan-2-yl)phenoxy)cyclobutyl)amino)-2-(2,6-dioxopiperidin-3-yl)isoindolin-1,3-dione] | –
8 nM | < 10 nM | – | COc1nccc(COc2ccc(C(C)(C)c3ccc(OC4CC(Nc5ccc6c(c5)C(=O)N(C5CCC(=O)NC5=O)C6=O)C4)cc3)cc2)n1 (centres unmarked) [Example 447, 2-(2,6-dioxopiperidin-3-yl)-5-((3-(4-(2-(4-((2-methoxypyrimidin-4-yl)methoxy)phenyl)propan-2-yl)phenoxy)cyclobutyl)amino) isoindolin-1,3-dione] | –

SMILES | IC50 (22RV1 cells; [2]) | DC50 [1] | IC50 (22RV1 cells; [3]) | IC50 (22RV1 cells; Homo sapiens, 22Rv1, 144 h, read-out: 22RV1 IC50 (nM))
Cc1nc(-c2cccc(Oc3ccc(C(C)(C)c4ccc(O[C@H]5C[C@H](Nc6ccc7c(c6)C(=O)N(C6CCC(=O)NC6=O)C7=O)C5)cc4)cc3)n2)no1 (some centres unmarked) [Example 421] | – | < 10 nM | – | 3 nM
